Values quoted from earlier work as cited in PubChem BioAssay AID1259409 (Chemical Carcinogenesis Research Information System (CCRIS), 2018).
*1 amine or outer side, *2 acyl side, *3 side chain or, on linkers, in order; H or OH if unused. Where a SMILES comes first, the peptide text is derived from it. CO = O=C([*:1])[*:2]

Test system: rodent chemically induced tumor inhibition, incidence and multiplicity
Assay: CCRIS tumor inhibitor studies
Conditions: Species: MOUSE

## O=S(=O)(O)c1ccccc1
Carcinogen: BETA-PROPIOLACTONE, 57-57-8, Dose [Inhibitor]: 40 UMOL IN 0.2 ML WATER 5 MIN PRIOR TO EACH CARCINOGEN DOSE (STUDY DURATION: 26 WK), Route [Inhibitor]: GAVAGE, Strain/Sex: STRAIN-A/FEMALE, Target Tissue: Type of Lesion: FORESTOMACH: PAPILLOMA, Dose [Carcinogen]: 28 UMOL IN 0.1 ML WATER 2/WK FOR 10 WK, Promoter: NONE USED
  tumour outcome (control, treated, inhibition, significance): 100%, 100%, 0%, not significant

## NCCOc1c(Cl)cc(Cl)cc1-c1ccccc1
Carcinogen: ETHYL CARBAMATE, 51-79-6, Dose [Inhibitor]: 0, 0.04 MG/G PER DOSE IN 0.01 ML OF 0.9% SALINE ADMINISTERED IN 4 DOSES AT 3 HR INTERVALS BEGINNING 30 MIN PRIOR TO CARC, Route [Inhibitor]: INTRAPERITONEAL, Strain/Sex: B6C3F1/MALE, Target Tissue: Type of Lesion: LIVER: HEPATOMA, Dose [Carcinogen]: 0.125 MG/G ONCE, Promoter: NONE USED
  tumour outcome (control, treated, inhibition, significance): 21/21 (100%), 23/25 (92%), 8%, not calculated
Carcinogen: ETHYL CARBAMATE, 51-79-6, Dose [Inhibitor]: 0, 0.04 MG/G PER DOSE IN 0.01 ML OF 0.9% SALINE ADMINISTERED IN 4 DOSES AT 3 HR INTERVALS BEGINNING 30 MIN PRIOR TO CARC, Route [Inhibitor]: INTRAPERITONEAL, Strain/Sex: B6C3F1/MALE, Target Tissue: Type of Lesion: LIVER: HEPATOMA, Dose [Carcinogen]: 0.25 MG/G ONCE, Promoter: NONE USED
  tumour outcome (control, treated, inhibition, significance): 25/25 (100%), 24/24 (100%), 0%, not calculated
Carcinogen: ETHYL CARBAMATE, 51-79-6, Dose [Inhibitor]: 0, 0.04 MG/G PER DOSE IN 0.01 ML OF 0.9% SALINE ADMINISTERED IN 4 DOSES AT 3 HR INTERVALS BEGINNING 30 MIN PRIOR TO CARC, Route [Inhibitor]: INTRAPERITONEAL, Strain/Sex: B6C3F1/MALE, Target Tissue: Type of Lesion: LIVER: HEPATOMA, Dose [Carcinogen]: 0.5 MG/G ONCE, Promoter: NONE USED
  tumour outcome (control, treated, inhibition, significance): 22/22 (100%), 21/22 (95%), 5%, not calculated
Carcinogen: VINYL CARBAMATE, 15805-73-9, Dose [Inhibitor]: 0, 0.04 MG/G PER DOSE IN 0.01 ML OF 0.9% SALINE ADMINISTERED IN 4 DOSES AT 3 HR INTERVALS BEGINNING 30 MIN PRIOR TO CARC, Route [Inhibitor]: INTRAPERITONEAL, Strain/Sex: B6C3F1/MALE, Target Tissue: Type of Lesion: LIVER: HEPATOMA, Dose [Carcinogen]: 0.003 MG/G ONCE, Promoter: NONE USED
  tumour outcome (control, treated, inhibition, significance): 21/24 (88%), 25/25 (100%), -14%, not calculated
Carcinogen: VINYL CARBAMATE, 15805-73-9, Dose [Inhibitor]: 0, 0.04 MG/G PER DOSE IN 0.01 ML OF 0.9% SALINE ADMINISTERED IN 4 DOSES AT 3 HR INTERVALS BEGINNING 30 MIN PRIOR TO CARC, Route [Inhibitor]: INTRAPERITONEAL, Strain/Sex: B6C3F1/MALE, Target Tissue: Type of Lesion: LIVER: HEPATOMA, Dose [Carcinogen]: 0.008 MG/G ONCE, Promoter: NONE USED
  tumour outcome (control, treated, inhibition, significance): 26/26 (100%), 22/23 (96%), 4%, not calculated
Carcinogen: VINYL CARBAMATE, 15805-73-9, Dose [Inhibitor]: 0, 0.04 MG/G PER DOSE IN 0.01 ML OF 0.9% SALINE ADMINISTERED IN 4 DOSES AT 3 HR INTERVALS BEGINNING 30 MIN PRIOR TO CARC, Route [Inhibitor]: INTRAPERITONEAL, Strain/Sex: B6C3F1/MALE, Target Tissue: Type of Lesion: LIVER: HEPATOMA, Dose [Carcinogen]: 0.025 MG/G ONCE, Promoter: NONE USED
  tumour outcome (control, treated, inhibition, significance): 23/23 (100%), 24/25 (96%), 4%, not calculated

## CC1(C)CC[C@]2(CO)CC[C@]3(C)C(=CC[C@@H]4[C@@]5(C)CC[C@H](O)[C@@](C)(CO)[C@@H]5CC[C@]43C)[C@H]2C1
Carcinogen: 7,12-DIMETHYLBENZ[A]ANTHRACENE, 57-97-6, Dose [Inhibitor]: 81 NMOL IN 100 µL ACETONE/DMSO (99:1) APPLIED 40 MIN PRIOR TO EACH PROMOTER DOSE (STUDY DURATION: 18 WK), Route [Inhibitor]: DERMAL, Strain/Sex: ICR, Target Tissue: Type of Lesion: SKIN: CARCINOMA, Dose [Carcinogen]: 100 UG ONCE, Promoter: 12-O-TETRADECANOYLPHORBOL-13-ACETATE, 16561-29-8
  tumour outcome (control, treated, inhibition, significance): 100%, 20%, 80%, not calculated

## CC(C)[C@H](NC(=O)[C@H](CCCN=C(N)N)NC(=O)N[C@@H](Cc1ccccc1)C(=O)O)C(=O)N[C@H](C=O)CCCN=C(N)N ({Phe-CO}-Arg-Val-Arg-aldehyde)
Carcinogen: 1,2,3,4,5,6-HEXACHLOROCYCLOHEXANE, 319-84-6, Dose [Inhibitor]: 0.1% IN DIET FOR 12 WK POST CARCINOGEN TREATMENT (STUDY DURATION: 48 WK), Route [Inhibitor]: ORAL, Strain/Sex: DDY/MALE, Target Tissue: Type of Lesion: LIVER: NODULAR HYPERPLASIA, Dose [Carcinogen]: 500 PPM IN DIET FOR 24 WK, Promoter: NONE USED
  tumour outcome (control, treated, inhibition, significance): 1/13 (7%), 2/15 (13%), -86%, not significant
Carcinogen: N-BUTYL-N-(4-HYDROXY-BUTYL)NITROSAMINE, 3817-11-6, Dose [Inhibitor]: 0.1% IN DIET FOR 32 WK POST CARCINOGEN TREATMENT (STUDY DURATION: 40 WK), Route [Inhibitor]: ORAL, Strain/Sex: ICR/MALE, Target Tissue: Type of Lesion: URINARY BLADDER: CANCER, Dose [Carcinogen]: 0.05% IN DRINKING WATER FOR FIRST 8 WK THEN FED BASAL DIET CONTAINING INHIBITOR, Promoter: NONE USED
  tumour outcome (control, treated, inhibition, significance): 1/13 (8%), 3/15 (20%), -150%, not significant
Carcinogen: N-BUTYL-N-(4-HYDROXY-BUTYL)NITROSAMINE, 3817-11-6, Dose [Inhibitor]: 0.1% IN DIET FOR 32 WK POST CARCINOGEN TREATMENT (STUDY DURATION: 40 WK), Route [Inhibitor]: ORAL, Strain/Sex: ICR/MALE, Target Tissue: Type of Lesion: URINARY BLADDER: PAPILLARY OR NODULAR HYPERPLASIA, Dose [Carcinogen]: 0.05% IN DRINKING WATER FOR FIRST 8 WK THEN FED BASAL DIET CONTAINING INHIBITOR, Promoter: NONE USED
  tumour outcome (control, treated, inhibition, significance): 4/13 (31%), 8/15 (53%), -71%, not significant
Carcinogen: URETHANE, 51-79-6, Dose [Inhibitor]: 11 INJECTIONS (100 UG/G BW FOR EACH) AT 12 HR INTERVALS FROM 0-120 HR AFTER URETHANE TREATMENT (STUDY DURATION: 5 MO), Route [Inhibitor]: INTRAPERITONEAL, Strain/Sex: ICR/JCI/FEMALE, Target Tissue: Type of Lesion: LUNG: TUMOR, Dose [Carcinogen]: 1.0 MG/G BW ONCE, Promoter: NONE USED
  tumour outcome (control, treated, inhibition, significance): 49/53 (92%), 38/46 (83%), 10%, not significant
Carcinogen: URETHANE, 51-79-6, Dose [Inhibitor]: 11 INJECTIONS (100 UG/G BW FOR EACH) AT 12 HR INTERVALS FROM 240-360 HR AFTER URETHANE TREATMENT (STUDY DURATION: 5 MO), Route [Inhibitor]: INTRAPERITONEAL, Strain/Sex: ICR/JCI/FEMALE, Target Tissue: Type of Lesion: LUNG: TUMOR, Dose [Carcinogen]: 1.0 MG/G BW ONCE, Promoter: NONE USED
  tumour outcome (control, treated, inhibition, significance): 49/53 (92%), 34/45 (76%), 17%, p<0.05
